Measurements reported in PubChem BioAssay AID608 (Sanford-Burnham Center for Chemical Genomics, 2007).
Values joined by “and” are separate entries in the source; they are usually repeats but may differ in a detail not shown here. Equal entries are not always repeated. Active and inactive are the calls of the source. How the calls were made is not given here.

Target: Peptidyl-prolyl cis-trans isomerase FKBP1A (Homo sapiens) (UniProt P62942)
Assay: small-molecule binding to FKBP12 – biophysical, NMR detection (AID 608)
Conditions: purified FKBP12

Chain of Peptidyl-prolyl cis-trans isomerase FKBP1A (Homo sapiens) (P62942 whole entry, looked up): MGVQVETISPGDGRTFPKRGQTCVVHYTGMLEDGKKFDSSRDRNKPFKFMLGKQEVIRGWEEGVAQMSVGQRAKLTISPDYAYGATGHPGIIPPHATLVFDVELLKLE

Compound	Kd
CC(=O)NC1=NN(c2ccccc2)C(=O)C1	> 4 mM (inactive)
Cc1ccc(-c2nnn(CC(=O)O)n2)cc1	> 4 mM (inactive)
Cc1cc(-c2ccccc2)nc2cc(C(N)=O)nn12	> 4 mM (inactive)
COc1ccc(CN2CCNC(=O)C2CC(=O)O)cc1C (stereo not drawn)	> 4 mM (inactive)
CCOc1ccc(-c2n[nH]c(=S)n2C)cc1	> 4 mM (inactive)
COc1cc(C/C=C/c2ccccc2)c(OC)cc1O	> 4 mM (inactive)
CCn1c2ccccc2c2nn(C)c(=N)nc21	> 4 mM (inactive)
CC1(C)C(=O)C=C[C@@]2(C)C1=C(O)C(=O)[C@]1(C)C2CC[C@@]2(C)[C@H](c3ccoc3)C[C@H]3O[C@]321 (stereo partly drawn)	> 4 mM (inactive)
Cc1n[nH]c(=S)n1-c1ccc(C(=O)O)cc1	> 4 mM (inactive)
Cc1cccc(NC(=O)c2ccccc2C(=O)O)c1	> 4 mM (inactive)
CC(C)[C@@H]1CC[C@@H](C)CC1=O	> 4 mM (inactive)
O=C(O)c1ccccc1SCC(=O)N1CCOCC1	> 4 mM (inactive)
COc1cc(N)ncn1	> 4 mM (inactive)
Cc1cccc(NC(=O)CN2C(=O)CNC2=O)c1	> 4 mM (inactive)
CN1C(=O)C(Cc2c[nH]c3ccccc23)C(=O)N(C)C1=O	> 4 mM (inactive)
N/N=C/c1cccnc1	> 4 mM (inactive)
Cc1ccc(NC(=O)C2CCN(S(C)(=O)=O)CC2)cc1	> 4 mM (inactive)
CC(C)NC(=S)NCc1cnn(C)c1	> 4 mM (inactive)
Cn1c(=O)c2c(ncn2CCNC2=NCCC2)n(C)c1=O	> 4 mM (inactive)
CC(=O)Oc1cc(-c2coc3cc(OC(C)=O)c(OC(C)=O)c(OC(C)=O)c3c2=O)cc(OC(C)=O)c1OC(C)=O	> 4 mM (inactive)

Compound	Kd
O=C1CSC(c2ccc3c(c2)OCO3)N1 (stereo not drawn)	> 4 mM (inactive)
CC(CC(=O)O)n1cccn1 (stereo not drawn)	> 4 mM (inactive)
c1cnc(N2CCSCC2)nc1	> 4 mM (inactive)
Cc1noc(-c2ccccc2)c1CO	> 4 mM (inactive)
O=c1c(-c2cccs2)[n+]([O-])c2ccccc2n1O	> 4 mM (inactive)
Nc1nc(-c2nc3ccccc3[nH]2)cs1	0.068 mM and 0.098 mM
NC1=NC(=O)/C(=C\c2cccc(C(=O)O)c2)S1	> 4 mM (inactive)
CC(C)c1ccc(S(=O)(=O)CC(=O)N2CCOCC2C(=O)OCCCc2cccnc2)cc1 (stereo not drawn)	inactive
O=C(O)CC1Sc2ccccc2NC1=O (stereo not drawn)	> 4 mM (inactive)
COc1cc([C@H]2Oc3cc([C@H]4Oc5cc(O)cc(O)c5C(=O)[C@@H]4O)ccc3O[C@@H]2CO)ccc1O	> 4 mM (inactive)
O=C(CC1NC(=O)NC1=O)Nc1ccccc1 (stereo not drawn)	> 4 mM (inactive)
CC(C)CCCC(C)[C@H]1CCC2C3CC[C@@H]4C[C@H](O)CC[C@]4(C)C3CC[C@@]21C (stereo partly drawn)	> 4 mM (inactive)
CSc1ccccc1NC(=O)c1cnccn1	> 4 mM (inactive)
O=C(O)CC12CC3CC(CC(O)(C3)C1)C2	> 4 mM (inactive)
Cc1ccc(-c2nc(-c3cccnc3)no2)cc1	> 4 mM (inactive)
O=S1(=O)CCC(NC(=S)Nc2ccccc2)C1 (stereo not drawn)	> 4 mM (inactive)
CC1(C)CCC(C)(C)c2cc(C(=O)O)ccc21	> 4 mM (inactive)
O=C1CSC(=Nc2ccc(Cl)cc2)N1	> 4 mM (inactive)
Nc1ncnc2c1ncn2CCN1CCCCC1	> 4 mM (inactive)
CC(=O)N(C)Cc1nc2ccccc2n1C	> 4 mM (inactive)

Compound	Kd
Cc1cc(SCCF)n2ncnc2n1	> 4 mM (inactive)
CCCCN1C(=O)N(C)C2NC(=O)NC21 (stereo not drawn)	> 4 mM (inactive)
NC[C@H]1O[C@H](O[C@H]2[C@H](O)[C@@H](O[C@H]3O[C@H](CO)[C@@H](O)[C@H](N)[C@H]3O)[C@H](N)C[C@@H]2N)[C@H](N)[C@@H](O)[C@@H]1O	> 4 mM (inactive)
CC(=O)OC1CCC2(O)CC1(C)CCC1C2CC1(C)C (stereo not drawn)	> 4 mM (inactive)
Oc1cc(O)c2c(c1)O[C@H](c1cc(O)c(O)c(O)c1)[C@H](O)C2	> 4 mM (inactive)
O=C1CC[C@]23/C=C/C(=O)NCCCCNCCCNC(=O)/C=C/c4ccc(c2c4)O[C@@H]3C1	> 4 mM (inactive)
NC(=O)C1CCN(C(=O)c2ccccc2)CC1	> 4 mM (inactive)
CN1CCN(c2ccc(CN)cc2)CC1	> 4 mM (inactive)
Cc1cc(C)n(-c2cccc3cccnc23)n1	> 4 mM (inactive)
c1ccc(C[N+]23CCN(CC2)CC3)cc1	> 4 mM (inactive)
OCc1ccc2c(c1)OCO2	> 4 mM (inactive)
O=C(Nc1ccccc1C(F)(F)F)c1cnccn1	> 4 mM (inactive)
NC(=O)NCCCC(N)C(=O)O (stereo not drawn)	> 4 mM (inactive)
CC(=O)NC(c1ccccc1)c1cccnc1 (stereo not drawn)	> 4 mM (inactive)
NC(=O)Cn1nc2c3c(cccc3c1=O)-c1ccccc1-2	> 4 mM (inactive)
CN1CCC(NC(=O)c2cccnc2)CC1	> 4 mM (inactive)
NC(=O)Nc1cccc(C(F)(F)F)c1	> 4 mM (inactive)
CN1CCN(C(=O)c2ccccc2C(=O)O)CC1	> 4 mM (inactive)
